By IC50 is commonly meant the midpoint of a concentration-inhibition curve. A lower IC50 goes with greater potency in that assay.

Sequence of Rho kinase (fused protein of bovine Rho kinase catalyst region and glutathione S-transferase) (Q28021 92-354 limits assumed): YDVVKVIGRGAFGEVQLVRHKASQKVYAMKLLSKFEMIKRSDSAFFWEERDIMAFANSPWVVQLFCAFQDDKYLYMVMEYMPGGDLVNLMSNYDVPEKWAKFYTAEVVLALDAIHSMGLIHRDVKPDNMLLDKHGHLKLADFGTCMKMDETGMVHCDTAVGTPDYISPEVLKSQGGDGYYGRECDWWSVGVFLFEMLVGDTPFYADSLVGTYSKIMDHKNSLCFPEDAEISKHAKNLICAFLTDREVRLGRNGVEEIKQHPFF

For the test, the target named is Rho kinase (fused protein of bovine Rho kinase catalyst region and glutathione S-transferase) (Bos taurus, UniProt Q28021). The test is described as follows: Rho kinase inhibitory activity (phosphorylation of S6 231–239 substrate, γ32P-ATP). The class given is biochemical. The conditions noted are these: concentration inhibiting substrate phosphorylation by 50%. How it is done:
This permits the substrate to be labeled with the radioisotope.
Thereafter, the substrate was adsorbed to a filter paper. ATP was washed away with a phosphoric acid solution, and the amount of the phosphorylated substrate was then measured with a liquid scintillation counter.
In turn, `O=C(NCc1ccc(Cl)cc1Cl)Nc1ccncc1` [Example 53, N-(2,4-Dichlorobenzyl)-N′-(4-pyridyl)urea] registered an IC50 of 4140 nM.

For the compound `O=C(NCc1c(Cl)ccc(Cl)c1Cl)Nc1ccncc1` [Example 55, N′-(4-Pyridyl)-N-(2,3,6-trichlorobenzyl)urea], the IC50 worked out at 1040 nM. This IC50 lies about 4-fold lower than the previous one.

Compound `O=C(Nc1ccncc1)Nc1c(F)cc(F)cc1Br` [Example 57] gave an IC50 of 1110 nM.

For the compound `O=C(Nc1ccncc1)Nc1c(F)cccc1C(F)(F)F` [Example 58], the IC50 was 13500 nM. This IC50 is about 12-fold higher than that of the compound before.

For the compound `O=C(Nc1ccncc1)Nc1ccc(F)cc1C(F)(F)F` [Example 59, N-[4-Fluoro-2-(trifluoromethyl)phenyl]-N′-(4-pyridyl)urea], the IC50 was 7270 nM.

`O=C(Nc1ccncc1)Nc1ccc(Br)cc1F` [Example 60, N-(4-Bromo-2-fluorophenyl)-N′-(4-pyridyl)urea] yielded an IC50 of 11000 nM.

In turn, `O=C(NCc1c(F)cccc1F)Nc1ccncc1` [Example 61, N-(2,6-Difluorobenzyl)-N′-(4-pyridyl)urea] gave an IC50 of 6950 nM.

`O=C(Nc1ccncc1)Nc1c(Cl)cc(C(F)(F)F)cc1Cl` [Example 63, N-[2,6-Dichloro-4-(trifluoromethyl)phenyl]-N′-(4-pyridyl)urea] registered an IC50 of 2500 nM.

The compound `O=C(NCc1c(F)cccc1C(F)(F)F)Nc1ccncc1` [Example 64, N-[2-Fluoro-6-(trifluoromethyl)benzyl]-N′-(4-pyridyl)urea] came in with an IC50 of 2190 nM.

`NC(=O)c1ccc(NC(=O)Nc2c(Cl)cccc2Cl)cc1` [Example 65, 4-{[(2,6-Dichloroanilino)carbonyl]amino}-benzamide] gave an IC50 of 9000 nM. This IC50 is about 4.1-fold higher than that of the compound before.

`O=C(Nc1ccncc1)Nc1c[nH]c2ccccc12` [Example 66, N-(1H-3-Indolyl)-N′-(4-pyridyl)urea] came in with an IC50 of 6570 nM.

With `O=C(Nc1ccc2c(c1)C(=O)NC2=O)Nc1c(Cl)cccc1Cl` [Example 67, N-(2,6-Dichlorophenyl)-N′-(1,3-dioxo-2,3-dihydro-1H-isoindolyl)urea], the IC50 came out at 1920 nM.

Compound `O=C(NCc1c(Cl)cccc1Cl)Nc1ccc2c(c1)C(=O)NC2=O` [Example 68, N1-(2,6-Dichlorobenzyl)-N′-(1,3-dioxo-2,3-dihydro-1H-5-isoindolyl)urea] displayed an IC50 of 110 nM.

`O=C(Nc1ccc2c(c1)C(=O)NC2=O)Nc1c[nH]c2ccccc12` [Example 69, N-(1,3-Dioxo-2,3-dihydro-1H-5-isoindolyl)-N′-(1H-3-indolyl)urea] gave an IC50 of 2270 nM.

For the compound `O=C(Nc1ccc2c(c1)C(=O)NC2=O)Nc1ccc2[nH]ccc2c1` [Example 70, N-(1,3-Dioxo-2,3-dihydro-1H-5-isoindolyl)-N′-(1H-5-indolyl)urea], half-maximal inhibition (IC50) was put at 400 nM.

In turn, `O=C(Nc1ccccc1)Nc1ccc2c(c1)C(=O)NC2=O` [Example 72, N1-(1,3-Dioxo-2,3-dihydro-1H-5-isoindolyl)-N′-phenylurea] displayed an IC50 of 900 nM.

With `O=C(NCc1ccccc1)Nc1ccc2c(c1)C(=O)NC2=O` [Example 73, N-Benzyl-N′-(1,3-dioxo-2,3-dihydro-1H-5-isoindolyl)urea], the IC50 came to 410 nM.

Turning to `CCCNC(=O)Nc1ccc2c(c1)C(=O)NC2=O` [Example 74, N-(1,3-Dioxo-2,3-dihydro-1H-5-isoindolyl)-N′-propylurea], the IC50 is 8300 nM.

Take `O=C(NCC1CCCCC1)Nc1ccncc1` [Example 75, N-Cyclohexylmethyl-N′-(4-pyridyl)urea]: the IC50 is 6030 nM. This IC50 and that of the compound before are within 1.5-fold of each other.

`O=C(NCC1CCCCC1)Nc1ccc2c(c1)C(=O)NC2=O` [Example 76, N-Cyclohexylmethyl-N′-(1,3-dioxo-2,3-dihydro-1H-5-isoindolyl)urea]: the IC50 stood at 1690 nM.

Regarding `O=C(NCc1c(F)cc(F)cc1F)Nc1ccncc1` [Example 77, N-(4-Pyridyl)-N′-(2,4,6-trifluorobenzyl)urea], 4070 nM corresponded to half-maximal inhibition (IC50).

`O=C(Nc1cccc([N+](=O)[O-])c1)Nc1ccc2c(c1)C(=O)NC2=O` [Example 78, N-(1,3-Dioxo-2,3-dihydro-1H-5-isoindolyl)-N′-(3-nitrophenyl)urea] returned an IC50 of 10400 nM. This IC50 lies about 2.6-fold higher than the previous one.

The compound `Nc1cccc(NC(=O)Nc2ccc3c(c2)C(=O)NC3=O)c1` [Example 79] registered an IC50 of 8570 nM.

With `O=C(NCc1c(Cl)cccc1Cl)Nc1cc2c(cc1Cl)C(=O)NC2=O` [Example 81, N-(6-Chloro-1,3-dioxo-2,3-dihydro-1H-5-isoindolyl)-N′-(2,6-dichlorobenzyl)urea], it took 54 nM to reach half-maximal inhibition (IC50).

In turn, `O=C(NCc1ccccc1Cl)Nc1ccc2c(c1)C(=O)NC2=O` [Example 82, N-(2-Chlorobenzyl)-N′-(1,3-dioxo-2,3-dihydro-1H-5-isoindolyl)urea] came in with an IC50 of 290 nM.

Compound `O=C(NCc1ccccc1)Nc1ccc2[nH]ncc2c1` [Example 84, N-Benzyl-N′-(1H-5-indazolyl)urea] had an IC50 of 260 nM. This IC50 and that of the compound before are within 1.5-fold of each other.

As to `O=C(NCc1cccc2ccccc12)Nc1ccc2c(c1)C(=O)NC2=O` [Example 85, N-(1,3-Dioxo-2,3-dihydro-1H-5-isoindolyl)-N′-(1-naphthylmethyl)urea], the IC50 was determined as 180 nM.

`O=C(NCc1ccccc1[N+](=O)[O-])Nc1ccc2c(c1)C(=O)NC2=O` [Example 86, N-(1,3-Dioxo-2,3-dihydro-1H-5-isoindolyl)-N′-(2-nitrobenzyl)urea] registered an IC50 of 900 nM.

As for `Nc1ccccc1CNC(=O)Nc1ccc2c(c1)C(=O)NC2=O` [Example 87], half-maximal inhibition (IC50) required 180 nM.

`O=C(NCc1ccc(Cl)cc1Cl)Nc1ccc2c(c1)C(=O)NC2=O` [Example 88, N-(2,4-Dichlorobenzyl)-N′-(1,3-dioxo-2,3-dihydro-1H-5-isoindolyl)urea]: the IC50 was determined as 440 nM. This IC50 is about 2.4-fold higher than that of the compound before.

The compound `O=C(NCc1c(Cl)ccc(Cl)c1Cl)Nc1ccc2c(c1)C(=O)NC2=O` [Example 89, N-(1,3-Dioxo-2,3-dihydro-1H-5-isoindolyl)-N′-(2,3,6-trichlorobenzyl)urea] gave an IC50 of 300 nM. The IC50 values of the last two compounds are within 1.5-fold of each other.

For `O=C(NCc1c(F)cccc1C(F)(F)F)Nc1ccc2c(c1)C(=O)NC2=O` [Example 91, N-(1,3-Dioxo-2,3-dihydro-1H-5-isoindolyl)-N′-[2-fluoro-6-(trifluoromethyl)benzyl]urea], the IC50 came out at 99 nM.

Consider `O=C(NCc1ccccc1)Nc1ccncc1` [Example 92, N-Benzyl-N′-(4-pyridyl)urea], for which the IC50 is 10200 nM.

The compound `O=C(NCc1ccccc1[N+](=O)[O-])Nc1ccncc1` [Example 93, N-(2-Nitrobenzyl)-N′-(4-pyridyl)urea] returned an IC50 of 12500 nM. This IC50 and that of the compound before are within 1.5-fold of each other.

Take `O=C(NCc1ccccc1Cl)Nc1ccncc1` [Example 94, N-(2-Chlorobenzyl)-N′-(4-pyridyl)urea]: the concentration for half-maximal inhibition (IC50) is 7200 nM.

`O=C(NCc1c(F)cccc1C(F)(F)F)Nc1ccc2[nH]ncc2c1` [Example 96, N-[2-fluoro-6-(trifluoromethyl)benzyl]-N′-(1H-5-indazolyl)urea] showed an IC50 of 230 nM.

Turning to `O=C(NCc1c(F)c(F)c(F)c(F)c1F)Nc1ccncc1` [Example 97, N-(2,3,4,5,6-Pentafluorobenzyl)-N′-(4-pyridyl)urea], half-maximal inhibition (IC50) required 2100 nM.

Turning to `O=C(NCc1c(F)c(F)c(F)c(F)c1F)Nc1ccc2c(c1)C(=O)NC2=O` [Example 98, N-(1,3-Dioxo-2,3-dihydro-1H-5-isoindolyl)-N′-(2,3,4,5,6-pentafluorobenzyl)urea], the IC50 came to 410 nM. This IC50 is about 5.1-fold lower than that of the compound before.

These data come from patent US7217722B2 (Kirin Beer Kabushiki Kaisha, priority 2000, dated 2007).
